Earlier results in US20240249808A1, “Physiologically Based Toxicokinetic (PBTK) Modeling for Implant Toxicology” (Cyprus University of Technology, priority 2021, published 2024).

Conditions: parenteral (non-oral) exposure; prolonged or permanent patient exposure; adverse systemic effects except hypersensitivity; CDRH recommended

SMILES: [Ni] [nickel]
- Tolerable Intake (TI) value: 0.5 µg/kg/day
